According to publication PMC7946689, “Galactose-Modified PH-Sensitive Niosomes for Controlled Release and Hepatocellular Carcinoma Target Delivery of Tanshinone IIA” (AAPS PharmSciTech, 2021):
Where two headings read alike, the source gives them in different places.

Columns and labels:
HepG2 cells [1] = assay: Cell apoptosis by flow cytometry (Annexin V-FITC/PI); format: cell-based; details: 5 μg/mL tanshinone IIA equivalent, 24 h, control 57.33%
Experimental: HepG2 cells were seeded in 6-well plates at a density of 2 × 10^5 cells per well for 24 h and treated with tanshinone IIA solution (Free TanIIA) and tanshinone IIA-loaded niosomes (TanIIA-NSVs, Gal-pH-TanIIA-NSVs) at an equivalent tanshinone IIA dose of 5 μg/mL for 24 h. Another group was treated with PBS for the same duration as the control group. After incubation, the cell culture medium was transferred to a 2-mL centrifuge tube, and cells digested by a trypsin-EDTA solution were added to the cell culture medium collected previously. Subsequently, the cells were mixed, transferred to a centrifuge tube, and centrifuged at 1000×g for 5 min ([34]). The supernatant was discarded, and the cells were gently resuspended with PBS and counted. A certain amount of resuspended cells were centrifuged in a similar fashion, the supernatant was discarded (PBS was removed), and 500 μL of binding buffer was added. Then, the cells were gently resuspended, and 5 μL Annexin V-FITC was added. After mixing, 5 μL propidium iodide (PI) staining solution was added to the cells, gently mixed, and incubated for 10 min in the dark at room temperature (20–25°C). Flow cytometry was then performed ([35]).

[2] = Biodistribution after tail vein injection; format: in vivo; details: SD rats, 10 mg/kg, all time periods tested (0.083, 4, 12 h)
Experimental: Twenty-seven male SD rats were randomly divided into three groups and administered in the same way. Rats were sacrificed after 0.083, 4, and 12 h, respectively, and heart, liver, spleen, lung, and kidney tissues were collected immediately. Any residual blood on the tissue was washed with precooled normal saline, and the washed tissue was blotted up with filter paper and weighed. The tissue was then homogenized in 5 times the mass of precooled normal saline. Homogenized tissue samples were centrifuged at 9391.2×g for 5 min to separate the tissue homogenate and were stored at −20°C ([39]). After treatment of plasma and tissue homogenate, the obtained supernatant was concentrated by nitrogen blowing and determined by HPLC.

[3] = design: method as in PMID 28680091; details: cited from earlier work
[4] = design: method as in PMID 28680091; details: cited from earlier work; remark: listed apart in the source
Huh7 cells = assay: CCK8 cell viability assay; format: cell-based; details: Homo sapiens, Huh-7, 24 h, equivalent tanshinone IIA dose
Experimental: (§1) A2780, HCT8, HepG2, and Huh7 cells were seeded in 96-well plates at a density of 4 × 10^4 cells per well for 24 h ([32]) and treated with complete medium containing a series of blank niosomes (NSVs, Gal-NSVs, pH-NSVs, Gal-pH-NSVs) for 24 h. Subsequently, the culture medium was discarded, and CCK8 solution was added to the cells. Then, cells were continuously cultured for 2 h at 37°C. The absorbance value of each well was measured at 450 nm by a microplate spectrophotometer (BIO-RAD xMark, USA). The control group and blank group were included in the experiment. […] Cell viability was calculated according to the following formula ([33]): Cell viability%=Atest−Ao/Acontrast−Ao×100%
(§2) In the formula, Atest is the absorbance value of the test group, Acontrast is the absorbance value of the control group, and A0 is the absorbance value of the blank group.
(§3) A2780, HCT8, HepG2, and Huh7 cells were seeded in 96-well plates for 24 h and treated with serial concentrations of tanshinone IIA solution (Free TanIIA) and tanshinone IIA-loaded niosomes (TanIIA-NSVs, Gal-TanIIA-NSVs, pH-TanIIA-NSVs, Gal-pH-TanIIA-NSVs) at an equivalent tanshinone IIA dose for 24 h. Then, the culture medium was discarded, CCK8 solution was added to the cells, and cells were continuously cultured for 2 h at 37°C. The absorbance value of each well was measured at 450 nm by a microplate spectrophotometer ([33]).

HepG2 cells [5] = assay: CCK8 cell viability assay; format: cell-based; details: Homo sapiens, 24 h, equivalent tanshinone IIA dose
Experimental: as §1, §2, §3

HCT8 cells = assay: CCK8 cell viability assay; format: cell-based; details: Homo sapiens, HCT-8, 24 h, equivalent tanshinone IIA dose
Experimental: as §1, §2, §3

A2780 cells = assay: CCK8 cell viability assay; format: cell-based; details: Homo sapiens, 24 h, equivalent tanshinone IIA dose
Experimental: as §1, §2, §3

HepG2 cells [6] = assay: Cell cycle by flow cytometry (PI); format: cell-based; details: 5 μg/mL tanshinone IIA equivalent, 24 h, control 28.98%
Experimental: The test method was performed according to the method provided with the apoptosis test until two centrifugations were completed, and the supernatant was discarded. Next, 1 mL of ice bath precooled 70% ethanol was added to fix the cells for 24 h at 4°C, then, the fixed cells were centrifuged at 1000×g for 5 min ([36]). After resuspending the cells, the cells were centrifuged and precipitated again, and the supernatant was discarded. A total of 500 μL PI staining solution was added to the cells, and the cells were slowly and sufficiently resuspended and bathed for 30 min in the dark at 37°C. Flow cytometry was completed within 24 h after staining ([37]).

[7] = Pharmacokinetics after tail vein injection; format: in vivo; details: SD rats
Experimental: Twelve male SD rats (weighing 200–250 g) were randomly divided into three groups. Rats were fasted for 12 h but drank water freely before administration ([38]). The first, second, and third groups were injected with Free TanIIA, TanIIA-NSVs, and Gal-pH-TanIIA-NSVs at an equivalent tanshinone IIA dose of 10 mg/kg via tail vein, respectively. Orbital blood was taken at 0.083, 0.25, 0.5, 1, 2, 4, 6, 8, 12, and 24 h after administration. Blood was transferred to a centrifuge tube coated with heparin sodium and centrifuged at 9391.2×g for 5 min to prepare plasma that was stored at −20°C ([39]).
After treatment of plasma and tissue homogenate, the obtained supernatant was concentrated by nitrogen blowing and determined by HPLC.

[8] = 10 mg/kg tanshinone IIA equivalent, tail vein

Drug level in kidney tissue [2]: relatively high drug levels
IC50 (Huh7 cells): 2.5 µg/mL
IC50 (HepG2 cells [5]): 2.26 µg/mL
IC50 (HCT8 cells): 2.42 µg/mL
IC50 (A2780 cells): 2.44 µg/mL
Plasma concentration by HPLC ([7]; 12 h after injection, 10 mg/kg): could not be detected
AUC0–t [7, 8]: 7.70 ± 1.51 (μg/mL)·h
AUC0–∞ [7, 8]: 8.81 ± 1.65 (μg/mL)·h
CL [7, 8]: 0.284 ± 0.026 (mg)/(μg/mL)/h
Vd [7, 8]: 1.26 ± 0.09 (mg)/(μg/mL)
half-life ([7]; male, rat, plasma, iv, 10 mg/kg tanshinone IIA equivalent, tail vein): 3.09 ± 0.59 h
MRT last ([7]; male, rat, plasma, iv, 10 mg/kg tanshinone IIA equivalent, tail vein, read-out: MRT0–t): 2.23 ± 0.2 h
MRT inf ([7]; male, rat, plasma, iv, 10 mg/kg tanshinone IIA equivalent, tail vein, read-out: MRT0–∞): 3.53 ± 0.63 h
SMILES: Cc1coc2c1C(=O)C(=O)c1c-2ccc2c1CCCC2(C)C [Free TanIIA, Tanshinone IIA]
Apoptotic rate (early + late apoptosis) (HepG2 cells [1]): 78.34%
half-life [3]: short half-life
Solubility in water [4]: insolubility in water
S phase distribution (HepG2 cells [6]): 50.53%
